From US11596637B2, “CHK1 (SRA737)/PARPi combination methods of inhibiting tumor growth” (SIERRA ONCOLOGY, INC., priority 2017, dated 2023)
Read-outs that look alike come from different tables or passages of the source.

Assays:
10 cancer cell lines = type: cell-based; settings: for single agent activity across the cancer cell lines tested (in words): 10 cancer cell lines
Description: (§1) Briefly, cell lines were preserved in liquid nitrogen and thawed and expanded in growth media containing full serum. As the cells reached expected doubling times, the screening assay began. Cells were seeded in growth media and equilibrated via centrifugation. The cell cultures were placed in incubators and then underwent treatment. Assay plates were collected and ATP levels were measured. Assay plates were incubated with combinations for seventy two (72) or ninety six (96) hours in simultaneous and sequential dosing schedules.
(§2) Cell lines that have been preserved in liquid nitrogen were thawed and expanded in growth media containing full serum. Once cells have reached expected doubling times, screening began. Cells were seeded in growth media in black 384-well tissue culture treated plates at cell densities as listed in Appendix 1 incorporated into and part of this specification. Cells were equilibrated in assay plates via centrifugation and placed in incubators (attached to the Dosing Modules) at 37° C. for 24 hours before treatment. […] These Tzero (T0) plates were read using ultra-sensitive luminescence on Envision plate readers. Assay plates were incubated with compounds for 72 and were then analyzed using ATPLite™.
(§3) Chalice Analyzer allows two ways of visualizing single agent dose response curves. The Logistics Curve fit modeling in Analyzer uses sigmoidal modeling of the data points. In most contexts, the Logistics Curve fit will accurately model the dose response curve. All subsequent analyses for the single agent and combination activities of SRA737 contained within the Examples use the Linear Interpolation Curve fit.
(§4) A GI 100% represents complete growth inhibition (cytostasis) and in this case cells treated with compound for 72 or 96 hours would have the same endpoint reading as T0 control cells. A GI of 200% represents complete death (cytotoxicity) of all cells in the culture well and in this case the T reading at 72 or 96 hours will be lower than the T0 control (values near or at zero). These GI calculations were used in all single agent and combination data analysis for the combination screen.
(§5) Single agent activity of SRA737 and four PARP inhibitors in each of 10 cancer cell lines comprising breast, ovarian, prostate sarcoma and head and neck cancer cells was assessed (FIGS. 3-9). The 10 cancer cell lines examined were: A673, B-474, CAL-27, DU-145, MDA-MB-231, OVCAR-3, OVCAR-5, PC-3, HT-29 and SK-BR-3. The cell lines were screened with a 72 hour treatment schedule. Cell viability was measured by detection of ATP metabolism using an ATP monitoring luminescence detection assay (ATPLite™) GI50, IC50, Maximum Response Observed (Max Response) were calculated (FIG. 5).

A673 cells = assay: Single agent assessment, ATPLite cell viability, 72 hour treatment; type: cell-based, human
Description: as §1, §2, §3, §4, §5

BT-474 cells = assay: as above; type: cell-based, human
Description: as §1, §2, §3, §4, §5

CAL-27 cells = assay: as above; type: cell-based, human
Description: as §1, §2, §3, §4, §5

DU145 cells = assay: as above; type: cell-based, human
Description: as §1, §2, §3, §4, §5

HT-29 cells = assay: as above; type: cell-based, human
Description: as §1, §2, §3, §4, §5

MDA-MB-231 cells = assay: as above; type: cell-based, human
Description: as §1, §2, §3, §4, §5

OVCAR-3 cells = assay: as above; type: cell-based, human
Description: as §1, §2, §3, §4, §5

OVCAR-5 cells = assay: as above; type: cell-based, human
Description: as §1, §2, §3, §4, §5

PC-3 cells = assay: as above; type: cell-based, human
Description: as §1, §2, §3, §4, §5

SK-BR-3 cells = assay: as above; type: cell-based, human
Description: as §1, §2, §3, §4, §5

For `NC(=O)c1cccc2cn(-c3ccc([C@@H]4CCCNC4)cc3)nc12` [Niraparib], the “single agent activity across the cancer cell lines tested (in words)” value (10 cancer cell lines; 72 hour treatment) was “activity in most of the cancer cell lines tested”.

In the case of `N#Cc1cnc(Nc2cc(NCC3CNCCO3)c(C(F)(F)F)cn2)cn1` (centres unmarked) [SRA737, 5-[[4-[[morpholin-2-yl]methylamino]-5-(trifluoromethyl)-2-pyridyl]amino]pyrazine-2-carbonitrile], the “sensitivity of the cell line to the single agent” value (shortened to “sensitivity of the cell line”) (A673 cells) is reported as “intermediate sensitivity”, the “sensitivity of the cell line” value (BT-474 cells) is reported as “least sensitivity” and the “sensitivity of the cell line” value (CAL-27 cells) is reported as “least sensitivity”. For the same molecule, the “sensitivity of the cell line” value (DU145 cells) was “intermediate sensitivity”, the “sensitivity of the cell line” value (HT-29 cells) was “intermediate sensitivity” and the “sensitivity of the cell line” value (MDA-MB-231 cells) was “least sensitivity”. The “sensitivity of the cell line” value (OVCAR-3 cells) was “intermediate sensitivity”, the “sensitivity of the cell line” value (OVCAR-5 cells) was “highest sensitivity” and the “sensitivity of the cell line” value (PC-3 cells) was “least sensitivity”. For the same molecule, the “sensitivity of the cell line” value (SK-BR-3 cells) was “highest sensitivity”, the “number of cancer cell lines in which single agent activity was demonstrated” value (10 cancer cell lines; of the 10 cancer cell lines, 72 hour treatment) was 8 and the “kind of single agent effect (cytotoxic / cytostatic)” value (10 cancer cell lines; the remaining six responsive cell lines) was “cytostatic”. For the same molecule, the “kind of single agent effect (cytotoxic / cytostatic)” value (10 cancer cell lines; the two most responsive cell lines) was “modestly cytotoxic”.

For `CNCc1ccc(-c2[nH]c3cc(F)cc4c3c2CCNC4=O)cc1` [Rucaparib], the “single agent activity across the cancer cell lines tested (in words)” value (10 cancer cell lines; 72 hour treatment) was “activity in most of the cancer cell lines tested”.

In the case of `Cn1ncnc1[C@H]1c2n[nH]c(=O)c3cc(F)cc(c23)N[C@@H]1c1ccc(F)cc1` [BMN 673, Talazoparib], the “single agent activity across the cancer cell lines tested (in words)” value (10 cancer cell lines; 72 hour treatment) is reported as “activity in most of the cancer cell lines tested”.

For `O=C(c1cc(Cc2n[nH]c(=O)c3ccccc23)ccc1F)N1CCN(C(=O)C2CC2)CC1` [Olaparib], the “single agent activity across the cancer cell lines tested (in words)” value (10 cancer cell lines; 72 hour treatment) was “activity in most of the cancer cell lines tested”.
